Assay results reported in PMC5501099 (Malaria Journal, 2017).

How the values were obtained:
Plasmodium vivax [1] = assay: Effect of ivermectin on Plasmodium vivax sporogony in Anopheles dirus; assay type: in vivo; conditions: An. dirus; for P. vivax oocyst prevalence reduced by: dissected day 7
Experimental: (§1) Mosquitoes reared in Bangkok were transported to a field laboratory at the Mae Sot Malaria Medical Clinic in Mae Sot, Tak Province. Plasmodium vivax-infected blood was collected from malaria-infected patients reporting to malaria clinics operated by the Thailand Ministry of Public Health in Tak Province (protocol WRAIR#1949A). Patient plasma was removed and replaced by centrifuging blood samples at 3000 rpm for 5 min, plasma removed and blood washed with RPMI twice, and malaria-naïve AB+ serum was added at a 50:50 ratio [30]. One millilitre of blood was fed to each group of 100 mosquitoes in 0.5-l cardboard containers and unfed mosquitoes were removed. Mosquitoes were maintained on 10% sucrose ad libitum at the Mae Sot field insectary (25 ± 1 °C and 70 ± 10% relative humidity, light 12 h:12 h dark photoperiod). Once infected with P. vivax, blood-fed mosquitoes were securely transported back to Bangkok and maintained in a separate insectary (25 ± 1 °C and 70 ± 10% relative humidity, light 12 h:12 h dark photoperiod).
(§2) Unfed mosquitoes were removed from the feeding containers after each blood meal. Mosquitoes from the DPI 0 and DPI −3 feeding schedules were dissected 7 days post parasite ingestion to enumerate oocysts. Midguts were dissected with minuten pins into saline on a microscope slide and stained with 0.4% mercurochrome and viewed at 40× magnification with a compound microscope to determine oocyst prevalence and intensity. Approximately 25 mosquitoes were dissected from each control and treatment group at each dissection time point. Dissectors were blinded to treatment groups. Due to lack of initial mosquito blood feeding and mosquitoes lost to experimental mortality and oocyst dissections at day 7 post parasite feeding, not enough mosquitoes remained at day 14 post parasite feeding to determine sporozoite prevalence for the DPI −3 and 0 experiments. Mosquitoes from the DPI 6 and 9 experiments were dissected 14 days post parasite ingestion to determine sporozoite prevalence. Salivary glands were dissected with minuten pins into saline on a microscope slide and viewed at 40× magnification to determine sporozoite prevalence.
(§3) A non-linear mixed effects model with probit analysis was used to calculate LC50, LC25 and LC5 values with Statistical Analysis Software (SAS Institute Inc, Cary, NC, USA) as described previously. Hazard ratios for mosquito mortality at day 7 post blood meal were calculated using Poisson regression analysis with STATA version 12.1 (StataCorp LLC, College Station, TX, USA). Oocyst and sporozoite prevalence (i.e. proportion of infected mosquitoes) was compared by Fishers Exact test. Oocyst intensity (i.e. number of oocysts per infected mosquito) was compared by the Mann–Whitney U test. To determine if P. vivax infection altered mosquito survivorship post-ivermectin ingestion survival data were analysed by the Mantel–Cox method. The Fishers Exact, Mann–Whitney U, and survival analysis data were analysed with Prism 7 (GraphPad Software Inc, San Diego, CA, USA).

Plasmodium vivax [2] = assay: Effect of ivermectin on Plasmodium vivax sporogony in Anopheles minimus; assay type: in vivo; conditions: An. minimus
Experimental: as §1
as §2, with “Salivary glands were dissected with minuten pins into saline on a microscope slide and viewed at 40× magnification to determine sporozoite prevalence.” left out
as §3, with “Oocyst and sporozoite prevalence (i.e. proportion of infected mosquitoes) was compared by Fishers Exact test. Oocyst intensity (i.e. number of oocysts per infected mosquito) was compared by the Mann–Whitney U test.” left out

Anopheles dirus = assay: Effect of Plasmodium vivax infection on Anopheles dirus survivorship response to ivermectin; assay type: in vivo; conditions: ivermectin LC25 co-ingested with parasites on DPI 0 vs ivermectin LC25 only; 14 days
Text: Anopheles dirus were fed a P. vivax blood meal or a non-infectious blood meal prepared from uninfected donor blood and serum was replaced as described above. […] After blood feeding, 50 blood fed females from each treatment group were transferred to a new 0.5-l cardboard carton. Mosquito survivorship was monitored daily and dead mosquitoes were removed from the containers until day 14 post blood meal. Any live mosquitoes at day 14 were frozen and counted as alive. A separate group of mosquitoes were fed a P. vivax control blood meal to ensure that the P. vivax sample was infectious to mosquitoes and only isolates that successfully infected at least 80% of An. dirus were included in the results.
as §3, with “Oocyst and sporozoite prevalence (i.e. proportion of infected mosquitoes) was compared by Fishers Exact test. Oocyst intensity (i.e. number of oocysts per infected mosquito) was compared by the Mann–Whitney U test.” left out

An. dirus = assay: Anticoagulant effects on mosquito survival with ivermectin LC25; assay type: in vivo, Anopheles dirus; conditions: sodium heparin vs CPDA, 7 days
Experimental: Blood was drawn from a single donor and put directly into 10 ml sodium heparin tubes (NH) (158 USP units, BD Vacutainer, Franklin Lakes, NJ, USA) or 6ml CPDA Vacuette tubes (Greiner Bio-One, Kremsmϋnster, Austria) under protocol (Protocol WRAIR#2079).

An. gambiae [3] = test system: An. gambiae; parameters: method as in PMID 20540931; conditions: cited from earlier work
An. gambiae [4] = conditions: ivermectin MDAs in Senegal at 150 µg/kg, for up to 6 days post MDA; cited from earlier work
[5] = parameters: method as in earlier work; conditions: humans, n = 4; cited from earlier work
[6] = single dose of 800 µg/kg, literature parameters of American healthy volunteers; cited from earlier work
[7] = ivermectin LC5 at DPI −3, not significant

Substance: ivermectin
- P. vivax oocyst prevalence reduced by (Plasmodium vivax [1]; ivermectin LC5 (22.1 ng/ml) co-ingested at DPI 0): 33.6%
- P. vivax mean oocyst intensity reduced by (Plasmodium vivax [1]; ivermectin LC5 at DPI 0): 24.7%
- P. vivax oocyst intensity increased by (Plasmodium vivax [1]; [7]): 24.2%
- P. vivax oocyst prevalence decreased by (Plasmodium vivax [1]; [7]): 3.9%
- P. vivax oocyst prevalence reduced by (Plasmodium vivax [1]; ivermectin LC25 (38.1 ng/ml) co-ingested at DPI 0): 44.7%
- P. vivax mean oocyst intensity reduced by (Plasmodium vivax [1]; ivermectin LC25 at DPI 0): 51.2%
- P. vivax sporozoite prevalence decreased by (Plasmodium vivax [1]; ivermectin LC25 at DPI 6, dissected day 14, not significant): 4.5%
- P. vivax sporozoite prevalence increased by (Plasmodium vivax [1]; ivermectin LC25 at DPI 9, dissected day 14, not significant): 4.4%
- P. vivax oocyst prevalence reduced by (Plasmodium vivax [2]; ivermectin LC5 (6.7 ng/ml) co-ingested at DPI 0): 31.3%
- P. vivax mean oocyst intensity reduced by (Plasmodium vivax [2]; ivermectin LC5 at DPI 0): 35.3%
- P. vivax oocyst prevalence reduced by (Plasmodium vivax [2]; ivermectin LC25 (11.3 ng/ml) co-ingested at DPI 0): 58.8%
- P. vivax mean oocyst intensity reduced by (Plasmodium vivax [2]; ivermectin LC25 at DPI 0, P = 0.1018): 28.5%
- Effect of P. vivax infection on survivorship of An. dirus that ingested ivermectin (Anopheles dirus): did not alter survivorship
- Effect of anticoagulant type on survivorship of An. dirus that ingested ivermectin (An. dirus): did not alter survivorship
- An. gambiae 5-day-LC50 (An. gambiae [3]): 0.0224 µg/mL
- An. gambiae 5-day survivorship reduced by (An. gambiae [4]): 43.6%
- Parent compound half-life [5]: 11.8 h
- Simulated average peak concentration [6]: 108.1 ng/mL
